According to PubChem BioAssay (NCI):
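The compound was tested at five concentrations on cells cultured in 96-well plates, with a 48-hour exposure period. The concentration for 50% growth inhibition is given as GI50. TGI is the concentration that stops growth completely.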

Key:
Test in all cases: NCI anticancer screen, dose series, 48 h
[1] = system: OVCAR-3 ovarian
[2] = system: HCT-15 colon
[3] = system: HOP-62 NSCLC
[4] = system: SW-620 colon
[5] = system: 786-0 renal
[6] = system: IGROV1 ovarian
[7] = system: SF-539 CNS
[8] = system: NCI-H522 lung
[9] = system: MDA-MB-231 breast
[10] = system: K-562 leukemia

| Structure (SMILES) | GI50 [1] [µM] | TGI [1] [µM] | GI50 [2] [µM] | TGI [2] [µM] | GI50 [3] [µM] | TGI [3] [µM] | GI50 [4] [µM] | TGI [4] [µM] | GI50 [5] [µM] | TGI [5] [µM] | GI50 [6] [µM] | TGI [6] [µM] | GI50 [7] [µM] | TGI [7] [µM] | GI50 [8] [µM] | TGI [8] [µM] | GI50 [9] [µM] | TGI [9] [µM] | GI50 [10] [µM] | TGI [10] [µM] |
| --- | --- | --- | --- | --- | --- | --- | --- | --- | --- | --- | --- | --- | --- | --- | --- | --- | --- | --- | --- | --- |
| c1ccc(Nc2nc(-c3ccccn3)cs2)nc1 | 0.273 | 19.6 | 0.172 | > 89.2 | 0.619 | > 100 | 0.61 | 19.9 | 0.344 | > 38.2 | 0.464 | 5.8 | 0.825 | > 88.7 | 0.253 | 15.1 | 0.934 | > 100 | 0.413 | > 57.2 |
| Cc1cccc2nc3cccc(C(=O)NCCNCCNCCNC(=O)c4cccc5nc6cccc(C)c6nc45)c3nc12 | < 0.01 | 2.91 | 0.0268 | > 100 | < 0.01 | 1.19 | < 0.01 | 3.5 | < 0.0333 | 7.74 | < 0.01 | > 39.3 | < 0.0254 | 4.06 | < 0.01 | 0.159 | 0.161 | 3.93 | < 0.01 | 9.37 |
| CCOC(=O)c1ccc2c(c1)nc(/C=C/c1ccc(Cl)cc1)n2-c1cc(C(C)(C)C)[nH]n1 | 2.86 | 8.26 | 4.26 | > 100 | 5.24 | 28.8 | 12.8 | > 100 | 2.98 | 9.29 | 5.09 | 33.8 | 2.09 | 5.09 | 2.84 | 10.6 | 2.37 | 7.57 | 4.41 | > 100 |
| O=C(c1ccco1)c1c(C(F)(F)F)nc2ccc(C(F)(F)F)cc2[n+]1[O-] | 28 | > 75.1 | > 86.9 | > 100 | 19.8 | 46.3 | > 59.1 | > 100 | 27 | 62 | 35.6 | > 92.7 | 18.3 | 34.5 | 62.1 | > 100 | 23.7 | 65.4 | > 73.8 | > 100 |
| COC1=C(Br)C(O)C2(C=C1Br)CC(C(=O)NCCCCNC(=O)C1=NOC3(C=C(Br)C(OC)=C(Br)C3O)C1)=NO2 (stereo not given) |  | 39.4 |  | > 100 |  | 79 |  | > 100 |  | > 100 |  | 46.8 |  | 50.3 |  | 29.8 |  | 66.6 |  | 55.4 |
| Clc1cc2c(nn1)Nc1ccccc1S2 | > 100 | > 100 | > 100 | > 100 | > 100 | > 100 | > 100 | > 100 | > 100 | > 100 | > 100 | > 100 | > 100 | > 100 | > 100 | > 100 | > 100 | > 100 | > 100 | > 100 |
| C=C1CC[C@@H]2[C@](C)(COC(C)=O)[C@H](OC(C)=O)CC[C@@]2(C)[C@@H]1CC(Nc1ccc(S(=O)(=O)Nc2cc(C)on2)cc1)C1=CCOC1=O (stereo not given in full) | 1.66 | 3.09 | 1.5 | 3.83 | 8.88 | 22.9 | 1.32 | 2.91 | 1.96 | 3.66 | 2.36 | 6.51 | 1.59 | 3.06 | 1.04 | 2.42 | 2.22 | 5.11 | 1.57 | 8.42 |
| COc1cc2oc(-c3ccc(O)cc3O)c(CC=C(C)C)c(=O)c2c(O)c1/C=C/C(C)C |  | 4.94 |  | 10.3 |  | 5.93 |  | 6.03 |  | 4.53 |  | 12 |  | 10.4 |  | 12.1 |  | 6.17 |  | 4.64 |
| NC(=S)N/N=C/c1ccc(N)cn1 |  | > 10 |  | > 10 |  | > 10 |  | > 10 |  | > 10 |  | > 10 |  | 2.2 |  | > 10 |  | > 10 |  | > 10 |
| C=C1CCC2C3(C)COC(c4c(OC)cccc4OC)OC3CCC2(C)C1C/C=C1/C(=O)OCC1O (stereo not given) | 1.94 | 3.95 | 2.28 | 7.87 | 14.8 | 28.7 | 1.71 | 3.23 | 3.34 | 8.88 | 1.89 | 4 | 2.55 | 6.35 | 2.02 | 5.01 | 7.57 | 26.4 | 1.41 | 6.28 |
| CC(=O)c1ccc(Nc2nc(Nc3ccc(F)cc3)nc(Nc3ccc(F)cc3)n2)cc1 | 10.6 | 33 | 8.49 | > 100 | 13.7 | 32.5 | 13.4 | 88 | 14.1 | 32.5 | 9.49 | 28.2 | 3.07 | 12.1 | 10.4 | 41.3 | 6.81 | 42.8 | 5.7 | > 100 |
| O=C1C=CC(=Nc2ccccc2)c2ccccc21 |  | 7.23 |  | 24.5 |  | 25.3 |  | > 100 |  | 24.7 |  | 23.2 |  | 29 |  | 23.3 |  | 11.3 |  | 42.6 |
| C[N+](C)(CCCCCC[N+](C)(C)CCCN1C(=O)c2cc3ccccc3cc2C1=O)CCCN1C(=O)c2cc3ccccc3cc2C1=O | > 37.5 | > 37.5 | > 37.5 | > 37.5 | > 37.5 | > 37.5 | > 37.5 | > 37.5 | > 37.5 | > 37.5 | > 37.5 | > 37.5 | > 37.5 | > 37.5 | > 37.5 | > 37.5 | > 37.5 | > 37.5 | > 37.5 | > 37.5 |
| Nc1ccccc1NC(=O)c1ccc(CN2CCC/C(=C\c3ccccn3)C2=O)cc1 | 2.37 | > 100 | 1.11 | > 100 | 2.5 | > 100 | 0.745 | > 100 | 2.71 | 30.2 | 1.1 | > 100 | 1.58 | > 100 | 0.51 | 3.76 | 4.04 | > 100 | 0.414 | > 100 |
| CCCC[n+]1c(/C=C\c2c(OC)cc(OC)cc2OC)ccc2ccccc21 | 0.515 | 2.57 | 2.84 | 12.3 | 2.58 | 10.5 | 0.814 | 10 | 2.84 | 13 | 1.09 | 6.7 | 1.44 | 4.65 | 0.678 | 3.07 | 1.42 | 4.62 | 0.294 | > 38.6 |
| COC(=O)c1ccc2c(c1)C(=O)c1c-2n(C)c(=O)c2cc(OC)c(OC)cc12 | 44.6 | > 50 | > 50 | > 50 | 17.7 | > 50 | > 50 | > 50 | 21.8 | > 50 | 11.8 | > 50 | > 50 | > 50 | > 50 | > 50 | 21.2 | > 50 | > 50 | > 50 |
| CC[C@@H](C(=O)[C@H](C)[C@H](O)[C@@H](C)[C@H]1O[C@H]([C@@H](CC)C(=O)O)CC[C@H]1C)C1O[C@]2(C=C[C@@H](O)[C@]3(CC[C@@](C)([C@H]4CC[C@](O)(CC)[C@H](C)O4)O3)O2)[C@H](C)C[C@@H]1C (stereo not given in full) | 0.0842 | 18.8 | 0.639 | 26.5 | 0.532 | 21.6 | 0.966 | 10.7 | 1.26 | 21.2 | 2.07 | > 100 | 0.328 | 4.05 | 0.0961 | 2.51 | 0.586 | 6.71 | 0.223 | 7.06 |
| CN(C)CCC=C1c2ccccc2C(C)(C)c2ccccc21 | 15.2 | 28.5 | 12.3 | 27.5 | 17.4 | 33.5 | 13.3 | 26.2 | 12.8 | 27 | 15.9 | 31.7 | 10.4 | 22.2 | 17.9 | 37.1 | 13.8 | 28.8 | 3 | 19 |
